Legend:
[1] = target: T1, Recombinant purified human CDK7 (Homo sapiens, UniProt P50613); experiment: CDK7 activity inhibition, ADP-Glo kinase assay; assay type: biochemical; details: ATP 90 μM, MBP substrate, 2 hours 30° C.
T1 construct: purchased ThermoFisher PV3868
Method in brief: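 Human recombinant CDK7 (50 ng per reaction) in 40 mM Tris-Cl pH 7.5, 20 mM MgCl2, 0.1 mg/ml BSA, 50 μM DTT, with 1% DMSO. The reaction used 90 μM ATP and 0.2 μg/μl MBP substrate for 2 h at 30 °C. ADP formed was quantified by ADP-Glo luminescence to derive inhibition.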

[2] = tested on: MV-4-11 cells; experiment: MV-4-11 cell proliferation inhibition (CCK-8); assay type: cell-based; details: Homo sapiens, 72 hours
Method in brief: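 The FLT3-mutant AML line MV-4-11 was exposed to compound for 72 h. Antiproliferative effect was read with the tetrazolium-based CCK-8 method.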

[3] = tested on: MDA-MB-468 cells; experiment: MDA-MB-468 cell proliferation inhibition (MTT); assay type: cell-based; details: MDA-MB-468 proliferation
Protocol: MDA-MB-468 cells are one of the triple-negative breast cancer (TNBC: negative for the expression of estrogen receptor, progesterone receptor and HER2) cells known as a malignant tumor that is difficult to diagnose at an early stage and has a high metastatic capacity, and these cells are used to test inhibition of proliferation and survival of breast cancer cells.
MDA-MB-468 cells cultured in a 96-well cell culture plate were treated with the compound of the present invention and cultured for 72 hours. Thereafter, the antiproliferative effect of the compound was assayed by the MTT method using a tetrazolium salt.

[4] = tested on: HepG2 cells; experiment: HepG2 cell proliferation inhibition (CCK-8); assay type: cell-based; details: Homo sapiens, HepG2, 72 h
Protocol: HepG2 cells are human hepatocellular carcinoma cells. In order to evaluate the efficacy of inhibiting the proliferation in HepG2 cells, HepG2 cells were treated with the compounds of the present invention, and the proliferation level was measured as follows.
The cells were cultured with a culture medium of MEM (Welgene)+10% FBS (Gibco)+1% penicillin/streptomycin (Gibco) at 37° C. in a humidified condition in the presence of 5% CO2. HepG2 cells cultured in a 96-well cell culture plate were treated with the compound of the present invention and cultured for 72 hours.

[5] = tested on: HepG2; experiment: Cancer cell proliferation GI50 (CCK-8); assay type: cell-based, human; details: HepG2, liver cancer, 72 hours
Protocol: (§1) The proliferation effect of SY-1365, which is known to have a proliferation inhibitory effect on various carcinoma cells, and the compound of the present invention on various cancer cells was measured and compared as GI50 (half maximal growth inhibitory concentration, the concentration at which cell proliferation is reduced by half).
(§2) Various carcinoma cells were cultured at 37° C. in a humidified condition in the presence of 5% CO2. Each cell cultured in a 96-well cell culture plate was treated with the compound of the present invention and cultured for 72 hours.
(§3) In this example, in order to confirm the proliferation inhibitory effect on various cancer cells, Compound 121 was tested as follows.
(§4) The cells were cultured with a culture medium shown in Table 9 below at 37° C. in a humidified condition in the presence of 5% CO2. Each cell cultured in a 96-well cell culture plate was treated with the compound of the present invention and cultured for 72 hours.

[6] = tested on: MDA-MB-468; experiment: Cancer cell proliferation GI50 (CCK-8); assay type: cell-based; details: MDA-MB-468, breast cancer, 72 hours
Protocol: as §1, §2, §3, §4

[7] = tested on: MDA-MB-231; experiment: Cancer cell proliferation GI50 (CCK-8); assay type: cell-based; details: MDA-MB-231, breast cancer, 72 hours
Protocol: as §1, §2, §3, §4

[8] = tested on: Hep3B; experiment: Cancer cell proliferation GI50 (CCK-8); assay type: cell-based; details: liver cancer, 72 hours
Protocol: as §1, §2, §3, §4

[9] = tested on: Huh7; experiment: Cancer cell proliferation GI50 (CCK-8); assay type: cell-based; details: Huh7 (Huh-7), liver cancer, 72 hours
Protocol: as §1, §2, §3, §4

T1 sequence (P50613 whole entry): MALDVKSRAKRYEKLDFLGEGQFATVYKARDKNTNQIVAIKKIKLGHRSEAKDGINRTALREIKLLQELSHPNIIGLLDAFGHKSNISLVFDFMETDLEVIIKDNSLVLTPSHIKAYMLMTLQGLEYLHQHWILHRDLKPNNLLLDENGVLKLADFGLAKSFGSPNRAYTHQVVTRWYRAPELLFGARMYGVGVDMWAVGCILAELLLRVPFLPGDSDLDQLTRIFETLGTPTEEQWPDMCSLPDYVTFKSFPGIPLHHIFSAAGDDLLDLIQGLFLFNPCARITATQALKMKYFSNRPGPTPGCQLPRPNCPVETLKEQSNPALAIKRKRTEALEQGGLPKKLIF
T1 sequence (P51946 whole entry partner): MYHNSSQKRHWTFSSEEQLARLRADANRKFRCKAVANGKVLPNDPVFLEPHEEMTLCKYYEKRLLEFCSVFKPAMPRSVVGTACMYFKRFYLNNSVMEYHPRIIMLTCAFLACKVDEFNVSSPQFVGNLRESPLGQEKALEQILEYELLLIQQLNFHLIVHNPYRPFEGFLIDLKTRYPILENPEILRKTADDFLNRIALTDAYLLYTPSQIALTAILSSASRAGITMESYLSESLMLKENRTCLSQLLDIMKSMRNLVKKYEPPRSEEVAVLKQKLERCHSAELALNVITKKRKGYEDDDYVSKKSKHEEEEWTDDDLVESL
T1 sequence (P51948 whole entry partner): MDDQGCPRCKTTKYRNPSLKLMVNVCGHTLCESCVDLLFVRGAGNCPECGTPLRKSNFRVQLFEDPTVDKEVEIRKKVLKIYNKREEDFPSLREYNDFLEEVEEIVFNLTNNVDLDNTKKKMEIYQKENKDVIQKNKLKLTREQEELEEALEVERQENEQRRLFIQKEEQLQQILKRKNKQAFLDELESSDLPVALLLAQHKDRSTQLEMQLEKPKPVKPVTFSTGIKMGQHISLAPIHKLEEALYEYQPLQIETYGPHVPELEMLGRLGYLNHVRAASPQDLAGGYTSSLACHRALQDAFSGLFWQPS

Row | IC50 [1] [nM] | IC50 ([2]; MV4-11, MV-4-11 proliferation) [nM] | IC50 ([3]; Homo sapiens, MDA-MB-468, 72 h) [nM] | IC50 ([3]; 72 hours) [nM] | IC50 [4] [nM] | GI50 [5] [nM] | GI50 [6] [nM] | GI50 [7] [nM] | GI50 [8] [nM] | GI50 [9] [nM] | SMILES | inhibition at 0.1 µM ([2]; MV4-11, MV-4-11, compound concentration 100 nM, read-out: Inhibition rate (%)) [%]
1 | 22.7 | 8 | ≤ 14 | 9.5 | 8.3 |  |  |  |  |  | C=CC(=O)Nc1cnc(-c2cncc(C(C)C(=O)Nc3ncc(C(F)(F)F)s3)c2)cn1 (centres unmarked) [Compound 45, N-(5-(5-(1-oxo-1-((5-(trifluoromethyl)thiazol-2-yl)amino)propan-2-yl)pyridin-3-yl)pyrazin-2-yl)acrylamide] | 100
2 |  |  |  |  |  | 19 | 18 | 70 | 36 | 20 | CN(C)C/C=C/C(=O)Nc1ccc(C(=O)N[C@@]2(C)CCC[C@@H](Nc3ncc(Cl)c(-c4c[nH]c5ccccc45)n3)C2)nc1 [SY-1365, reference compound] | 

From patent US20230095520A1, “PHARMACEUTICAL COMPOSITION FOR PREVENTING OR TREATING CANCER COMPRISING AZOLE DERIVATIVES OR PHARMACEUTICALLY ACCEPTABLE SALT THEREOF” (Yungjin Pharm. Co., Ltd., priority 2020, published 2023)
